≈ marks a conversion by molar mass, not a printed value.
Columns and labels:
[1] = species on record: Mus musculus; assay: Dose that causes 50% suppression of Plasmodium berghei parasitaemia in the treated mice (Mus musculus) compared to untreated controls.; assay type: functional
[2] = system: Mus musculus; assay: T/C is life span of treated mice/control at a compound dose of 16 (mg/kg); assay type: functional
[3] = system: Mus musculus; assay: T/C is life span of treated mice/control at a compound dose of 64 (mg/kg); assay type: functional
[4] = species on record: Mus musculus; assay: Dose that causes 90% suppression of Plasmodium berghei parasitaemia in the treated mice (Mus musculus) compared to untreated controls.; assay type: functional
[5] = system: Mus musculus; assay: T/C is life span of treated mice/control at a compound dose of 4 (mg/kg); assay type: functional
[6] = system: Plasmodium falciparum; assay: In vitro inhibitory concentration against Plasmodium falciparum W2 Indochina; assay type: functional, organism-based
[7] = system: Plasmodium falciparum; assay: In vitro inhibitory concentration against Plasmodium falciparum D6 (Sierra Leone); assay type: functional, organism-based
[8] = system: Mus musculus; assay: T/C is life span of treated mice/control at a compound dose of 16,(mg/kg); assay type: functional

| SMILES | SD50 [1] [mg/kg] | T/C [2] [days] | T/C [3] [days] | SD90 [4] [mg/kg] | T/C [5] [days] | IC50 [6] [ng/mL] | IC50 [7] [ng/mL] | T/C [8] [days] |
| --- | --- | --- | --- | --- | --- | --- | --- | --- |
| C[C@H]1C(Oc2ccc(C(=O)[O-])cc2)O[C@@H]2O[C@]3(C)CC[C@H]4[C@H](C)CCC1C24OO3.[Na+] (stereo not given in full) | 56 | 2.7 | 4.3 | – | – | – | – | – |
| C[C@@H]1CCC2[C@@H](C)[C@H](OC(CCC(=O)O)c3ccc(F)cc3)O[C@@H]3OC4(C)CC[C@@H]1C23OO4 (stereo not given in full) | 28.16 | 2.8 | 3.3 | 58.07 | 1.5 | 1.34 (≈ 2.88 nM) | 2.21 (≈ 4.76 nM) | – |
| C[C@@H]1CCC2[C@@H](C)[C@H](OC(CCC(=O)O)c3ccc(Cl)cc3)O[C@@H]3OC4(C)CC[C@@H]1C23OO4 (stereo not given in full) | 14.39 | – | 4.8 | 45.04 | 2.3 | 0.357 (≈ 0.742 nM) | 0.38 (≈ 0.79 nM) | 3.8 |
| COC(=O)CC[C@@H](O[C@H]1O[C@@H]2O[C@@]3(C)CC[C@H]4[C@H](C)CCC([C@H]1C)[C@@]24OO3)c1ccc(Cl)cc1 (stereo not given in full) | – | – | – | – | – | 0.656 (≈ 1.33 nM) | 0.391 (≈ 0.79 nM) | – |
| C[C@@H]1CCC2[C@@H](C)[C@@H](OC(CCC(=O)O)c3ccc(Br)cc3)O[C@@H]3OC4(C)CC[C@@H]1C23OO4 (stereo not given in full) | – | – | – | – | – | 0.419 (≈ 0.797 nM) | 1.36 (≈ 2.59 nM) | – |
| COC(=O)CC[C@@H](O[C@@H]1O[C@@H]2O[C@@]3(C)CC[C@H]4[C@H](C)CCC([C@H]1C)[C@@]24OO3)c1ccc(Cl)cc1 (stereo not given in full) | – | – | – | – | – | 0.629 (≈ 1.27 nM) | 0.728 (≈ 1.47 nM) | – |
| C[C@@H]1CCC2[C@@H](C)[C@@H](OC(CCC(=O)O)c3ccc(F)cc3)O[C@@H]3OC4(C)CC[C@@H]1C23OO4 (stereo not given in full) | – | – | – | – | – | 0.828 (≈ 1.78 nM) | 2.33 (≈ 5.02 nM) | – |
| COC(=O)CCC(O[C@H]1O[C@@H]2OC3(C)CC[C@H]4[C@H](C)CCC([C@H]1C)C24OO3)c1ccc(Cl)cc1 (stereo not given in full) | – | – | – | – | – | 0.794 (≈ 1.6 nM) | 0.903 (≈ 1.82 nM) | – |
| C[C@@H]1CCC2[C@@H](C)[C@@H](OC(CCC(=O)O)c3ccc(Cl)cc3)O[C@@H]3OC4(C)CC[C@@H]1C23OO4 (stereo not given in full) | – | – | – | – | – | 1.26 (≈ 2.62 nM) | 2.4 (≈ 5 nM) | – |
| C[C@@H]1CCC2[C@@H](C)[C@H](OC(CCC(=O)O)c3ccc(Br)cc3)O[C@@H]3OC4(C)CC[C@@H]1C23OO4 (stereo not given in full) | 16.26 | 3.5 | 5.8 | 48.18 | 2.7 | 0.313 (≈ 0.596 nM) | 0.405 (≈ 0.771 nM) | – |
| C[C@@H]1CC[C@H]2[C@@H](C)C(=O)O[C@@H]3O[C@@]4(C)CC[C@@H]1[C@]32OO4 [ARTEMISININ] | – | – | – | – | – | 2.14 (≈ 7.57 nM) | 3.91 (≈ 13.9 nM) | – |
| COC(=O)CCC(O[C@H]1O[C@@H]2OC3(C)CC[C@H]4[C@H](C)CCC([C@H]1C)C24OO3)c1ccc(F)cc1 (stereo not given in full) | – | – | – | – | – | 0.488 (≈ 1.02 nM) | 0.616 (≈ 1.29 nM) | – |
| COC(=O)CCC(O[C@H]1O[C@@H]2OC3(C)CC[C@H]4[C@H](C)CCC([C@H]1C)C24OO3)c1ccc(Br)cc1 (stereo not given in full) | – | – | – | – | – | 0.62 (≈ 1.15 nM) | 1.01 (≈ 1.87 nM) | – |
| COc1ccc(C(CCC(=O)O)O[C@@H]2O[C@@H]3OC4(C)CC[C@H]5[C@H](C)CCC([C@H]2C)C35OO4)cc1 (stereo not given in full) | 25.06 | 2.5 | 4 | 54.99 | 1.7 | 3.45 (≈ 7.24 nM) | 3.82 (≈ 8.01 nM) | – |
| COC(=O)CCC(O[C@@H]1O[C@@H]2OC3(C)CC[C@H]4[C@H](C)CCC([C@H]1C)C24OO3)c1ccc(F)cc1 (stereo not given in full) | – | – | – | – | – | 0.398 (≈ 0.832 nM) | 0.43 (≈ 0.9 nM) | – |
| COC(=O)CCC(O[C@@H]1O[C@@H]2OC3(C)CC[C@H]4[C@H](C)CCC([C@H]1C)C24OO3)c1ccc(OC)cc1 (stereo not given in full) | – | – | – | – | – | 0.647 (≈ 1.32 nM) | 0.827 (≈ 1.68 nM) | – |
| COC(=O)CCC(O[C@@H]1O[C@@H]2OC3(C)CC[C@H]4[C@H](C)CCC([C@H]1C)C24OO3)c1ccc(Br)cc1 (stereo not given in full) | – | – | – | – | – | 0.543 (≈ 1.01 nM) | 0.673 (≈ 1.25 nM) | – |

From ChEMBL document CHEMBL1130006, “Antimalarial activity of new dihydroartemisinin derivatives. 7. 4-(p-substituted phenyl)-4(R or S)-[10(alpha or beta)-dihydroartemisininoxy]butyric acids” (J Med Chem, 1997)
